Data set [1] concerns CYP3A4. The following applies: human liver microsomes; ref data on file, Incyte Corporation; cited from earlier work. Background: Liver microsomes are a subcellular fraction often used to study metabolism.
The conditions of data set [2]: clinical use; cited from earlier work.
A short description of data set [3]: Safety and tolerability in healthy participants. The following applies: for TEAEs considered related to the drug: investigator assessment; for participants who experienced TEAEs: n = 18. The format is in vivo, human.
The conditions of data set [4]: phase 1/2 study; cited from earlier work.
In data set [5] the test system is P‐glycoprotein (P‐gp). The following applies: read-out: P‐gp inhibition IC50; in vitro; ref data on file, Incyte Corporation; cited from earlier work.
For data set [6] the following is noted: dose range from 5 to 45 mg, relapsed or refractory B‐cell malignancies; cited from earlier work.
The next data set concerns other PI3K isoforms. The following applies: cited from earlier work.
The conditions of data set [7]: cited from earlier work.
The test system of data set [8] is CYP3A4. The following applies: recombinant human CYP isozymes, earlier in vitro studies; cited from earlier work.
The subject of a further data set is human OATP1B and OATP1B3. The following applies: in vitro; ref data on file, Incyte Corporation; cited from earlier work.
Data set [9] relates to P‐glycoprotein (P‐gp). The conditions noted are these: in vitro; ref data on file, Incyte Corporation; cited from earlier work.
Assay in data set [10]: not given
The source holds these as a separate data set.

The test system of a further data set is major CYPs. The conditions noted are these: earlier in vitro studies; cited from earlier work.
The mark [11] stands for this setting: concomitant rifampin 600 mg versus parsaclisib 20 mg alone.
Where [12] appears, read: parsaclisib 20 mg single oral dose alone, fasted, healthy participants, n = 18.
Setting [13] is: concomitant itraconazole 200 mg versus parsaclisib 10 mg alone.
The mark [14] stands for this setting: parsaclisib 10 mg single oral dose alone, fasted, healthy participants, n = 18.

Like-named read-outs stand apart in the source and are kept apart here.

In general, IC50 refers to the midpoint of a concentration-inhibition curve.

Consider `CC(=O)N1CCN(c2ccc(OCC3COC(Cn4ccnc4)(c4ccc(Cl)cc4Cl)O3)cc2)CC1` (stereo not shown) [ketoconazole], for which the “effect on parsaclisib metabolism” value with CYP3A4 [1] is “inhibited parsaclisib metabolism”.
As for `CC[C@H](Nc1ncnc2[nH]cnc12)c1nc2cccc(F)c2c(=O)n1-c1ccccc1` [idelalisib], the associated toxicities entry in data set [2] is “transaminitis (increased alanine and aspartate transaminase levels), colitis, diarrhea, and pneumonitis”.
`CO[C@H]1/C=C/O[C@@]2(C)Oc3c(C)c(O)c4c(O)c(c(/C=N/N5CCN(C)CC5)c(O)c4c3C2=O)NC(=O)/C(C)=C\C=C\[C@H](C)[C@H](O)[C@@H](C)[C@@H](O)[C@@H](C)[C@H](OC(C)=O)[C@@H]1C` [rifampin, reference compound]: the “participants reporting generalized pruritus and maculopapular rash” value in data set [3] (of all 36 participants, all in cohort 2, considered related to rifampin) was found to be 5.6%.
With `CCC(C)n1ncn(-c2ccc(N3CCN(c4ccc(OCC5COC(Cn6cncn6)(c6ccc(Cl)cc6Cl)O5)cc4)CC3)cc2)c1=O` (stereo not shown) [itraconazole, Itraconazole, reference compound], the “TEAEs considered related to the drug” value in data set [3] (healthy participants) is given as “No TEAE was considered related”.
For the molecule `CCOc1c([C@H](C)n2nc(C)c3c(N)ncnc32)cc(Cl)c(F)c1[C@@H]1CNC(=O)C1` [Parsaclisib], the “dose‐limiting toxicities” value in data set [4] is “no dose‐limiting toxicities identified”. The IC50 with P‐glycoprotein (P‐gp) [5] is 18.1 µM. Also, the “dose‐exposure relationship at steady state” value in [6] was “linear”. In addition, in the data set on other PI3K isoforms, the “selectivity relative to other PI3K isoforms” value is “approximately 20 000 fold”. Further, the “major metabolites in clinical plasma samples” value in data set [7] (clinical plasma samples, ref data on file, Incyte Corporation) was “no major metabolites were detected”. Besides, the “human‐specific metabolite” value in data set [7] (in vitro, rat, dog, and human) was “no human‐specific metabolite identified”. The “CYP isozyme responsible for metabolism” value in the data set on CYP3A4 [8] is given as “primarily metabolized by CYP3A4”. Also, the “substrate of human OATP1B and OATP1B3” value with human OATP1B and OATP1B3 is “not likely a substrate”. Moreover, under setting [11], the “decrease of AUC0‐∞” value is 77%, the “increase in geometric mean CL/F” value is reported as “approximately 4.4 fold”, the “reduction of Cmax” value was found to be 43% and the “shortening of mean t½,β” value is on record as 71%. Moreover, under setting [12], the “CL/F, Geometric Mean” value is reported as 2.9 L/h and the “CL/F, Mean ± SD” value is 3.0 ± 0.5 L/h. Under “single 20‐mg dose, concomitant rifampin”, the “decrease in the exposure of parsaclisib” value is given as “approximately 4 fold”. Also, the “P‐gp substrate: concentration at which efflux transport is saturated” value with P‐glycoprotein (P‐gp) [9] was over 100 µM. In data set [10] (setting [13]), the “decrease in geometric mean CL/F” value was “approximately 51%”, the “increase in geometric mean AUC0‐∞” value turned out to be 107%, the “increase in geometric mean Cmax” value is 21% and the “prolongation of mean t½,β” value was found to be 59%. In addition, in [10] (setting [13]), the “reduction of mean Vz/F” value is “approximately 24%”. Moreover, in [10] (setting [14]), the “CL/F, Geometric Mean” value amounted to 2.9 L/h and the “CL/F, Mean ± SD” value is given as 2.9 ± 0.3 L/h. Also, in data set [10] (single 10‐mg dose, concomitant itraconazole), the “increase in the exposure of parsaclisib” value is listed as “approximately 2 fold”. Also, in [3] (both cohorts), the “dose interruptions or reductions, discontinuations, serious AEs, deaths due to TEAEs” value is on record as “No dose interruptions or reductions, participant discontinuations, serious AEs, or deaths due to TEAEs”. For the same molecule, the “participants who experienced TEAEs” value in [3] (cohort 1: parsaclisib 10 mg + itraconazole 200 mg) is 27.8%. Further, the “participants with grade 4 TEAE (increased creatine phosphokinase)” value in data set [3] (cohort 2, day 44, not considered related to parsaclisib or rifampin) turned out to be 5.6%. Moreover, in [3] (cohort 2: parsaclisib 20 mg + rifampin 600 mg), the “participants who experienced TEAEs” value was found to be 44.4%. In addition, the “TEAEs considered related to the drug” value in data set [3] (healthy participants) is on record as “No TEAE was considered related”. Also, the “participants reporting headache (most common TEAE)” value in data set [3] (of all 36 participants, all cases in cohort 2 (parsaclisib + rifampin)) amounted to 13.9%. Further, the “overall safety and tolerability” value in [3] (single‐dose parsaclisib alone or combined with itraconazole or rifampin, healthy participants) was “safe and well tolerated”. Moreover, in the data set with major CYPs, the “inhibition of major CYPs” value is listed as “not an inhibitor of major CYPs tested”.
Consider `C[C@H](Nc1ncnc2[nH]cnc12)c1cc2cccc(Cl)c2c(=O)n1-c1ccccc1` [duvelisib], for which the associated toxicities entry in data set [2] is “transaminitis (increased alanine and aspartate transaminase levels), colitis, diarrhea, and pneumonitis”.

Values taken from PMC7586811 (Journal of Clinical Pharmacology, 2020).
